Reference: a compilation of properties of binary mixtures (doi:10.1021/acs.jpcb.7b01654)

Assay: xn = mol fraction of the nth substance listed
Conditions: 100 kPa

CC[n+]1ccn(C)c1.O=S(=O)([N-]S(=O)(=O)C(F)(F)F)C(F)(F)F + CCCCCCCCCCCC[n+]1ccn(C)c1.O=S(=O)([N-]S(=O)(=O)C(F)(F)F)C(F)(F)F
x2 = 0
Conditions	viscosity [mPa·s]
283 K	56.8
288 K	44.6
298 K	29.7
303 K	24.8
308 K	21
318 K	15.57
323 K	13.28

CCCCCCCCCCCC[n+]1ccn(C)c1.O=S(=O)([N-]S(=O)(=O)C(F)(F)F)C(F)(F)F + CC[n+]1ccn(C)c1.O=S(=O)([N-]S(=O)(=O)C(F)(F)F)C(F)(F)F
viscosity [mPa·s]
Conditions	293 K	298 K	303 K	308 K	313 K	318 K	323 K	328 K	333 K
x1 = 0.01	36.2	29.4	24.3	20.5	17.6	15.26	13.19	11.69	10.4
x1 = 0.04	37.9	30.8	25.5	21.5	18.4	15.96	13.82	–	10.81
x1 = 0.08	41.4	33.5	27.6	23.2	19.8	17	–	12.89	11.37
x1 = 0.16	47.6	–	–	26.1	22.1	19	16	14.06	–
x1 = 0.24	57.4	45.7	–	30.7	25.7	21.9	18.6	16.17	14.13
x1 = 0.32	69.1	54.2	43.6	35.6	29.6	24.8	–	18	15.5
x1 = 0.43	85.1	66	52.4	42.4	34.8	28.9	23.8	20.4	17.6
x1 = 0.52	94.7	73.2	57.7	46.6	38.3	31.7	26.1	22.2	19.1
x1 = 0.63	116	88.7	69.3	55.3	44.8	36.9	30.3	25.5	21.7
x1 = 0.74	137	104	80.6	–	51.3	42	–	28.7	24.1
x1 = 0.87	158	119	91.7	71.9	57.4	46.5	37.4	31.1	26.1
x1 = 0.92	182	135	102	79	62.1	49.8	40.2	33	–
x1 = 0.96	–	149	114	–	–	56.2	45.5	37.4	31.2
x1 = 1	193	143	–	84	66.2	53	42.65	34.9	28.87
x2 = 0.01	199	149	113	88.4	70	56.3	–	37.5	31.3
